The results in this text go back to patent US7579487B2 (dated 2009).

The term melting point denotes the temperature of the solid-liquid transition.

In turn, `CC(C)=C(NS(=O)(=O)c1ccc(C)cc1)C(=O)O` displayed a melting point of 188.5 to 189.5 °C.
`COc1ccc(S(=O)(=O)NC(C(=O)O)=C(C)C)cc1`: the melting point lay within 162.5 to 163.5 °C.
The same measure for `CC(C)=C(NS(=O)(=O)c1ccc(F)cc1)C(=O)O`: 172 to 173 °C; for `CC(C)=C(NS(=O)(=O)Cc1ccccc1)C(=O)O`: 194 to 195 °C.
With `CC(C)=C(NS(=O)(=O)CCCc1ccccc1)C(=O)O`, the melting point lay within 104.5 to 106 °C.
The same measure for `Cc1ccc(S(=O)(=O)NC(C(=O)O)=C2CCCCC2)cc1`: 221 to 222 °C; for `O=C(O)C(NS(=O)(=O)c1ccc(F)cc1)=C1CCCCC1`: 214 to 215 °C; for `C/C=C(/NS(=O)(=O)c1ccc(C)cc1)C(=O)O`: 150.5 to 151.5 °C.
As to `Cc1ccc(S(=O)(=O)N/C(=C/C(C)C)C(=O)O)cc1`, the melting point lay within 166.5 to 167.5 °C.
The same measure for `COc1ccc(S(=O)(=O)NC(C(=O)O)C(C)C)cc1` (stereo not shown): 116.5 to 117.5 °C; for `CC(C)[C@H](NS(=O)(=O)Cc1ccccc1)C(=O)O`: 120 to 121.5 °C; for `CC(C)[C@H](NS(=O)(=O)CCCc1ccccc1)C(=O)O`: 151 to 152 °C.
The same measure for `Cc1ccc(S(=O)(=O)NC(C(=O)O)C2CCCCC2)cc1` (stereo not shown): 182 to 184 °C; for `O=C(O)C(NS(=O)(=O)c1ccc(F)cc1)C1CCCCC1` (stereo not shown): 143 to 145 °C; for `CCC(NS(=O)(=O)c1ccc(C)cc1)C(=O)O` (stereo not shown): 133.5 to 135.5 °C.
The same measure for `Cc1ccc(S(=O)(=O)NC(CC(C)C)C(=O)O)cc1` (stereo not shown): 122 to 123 °C.
